Among the data in patent US10100050B2 (CHIESI FARMACEUTICI S.P.A., priority 2015, dated 2018) are IC50 values, retold here.

Counter-ions that a name gives are not always drawn. A value given as a limit tells only on which side of the number the result lay.

In experiment [1] the test system is Peripheral Blood Mononuclear Cells (PBMCs). The experiment can be described thus: LPS-stimulated PBMC TNFα release assay. In kind it is cell-based. To be noted: IC50 classes; human PBMC, LPS 10 ng/ml, 18 h; read-out: LPS-stimulated PBMC TNFα release inhibition. The procedure: 1-10 nM ‘+’; • <1 nM ‘++’ LPS-Stimulated PBMC TNFα Release Assay
Peripheral Blood Mononuclear Cells (PBMCs) were isolated from healthy human volunteer blood using a standard density gradient centrifugation technique. Citrated blood was placed onto Histopaque™ and centrifuged. The PBMCs were removed from the density gradient interface and washed in phosphate buffered saline (PBS). The PBMCs were suspended in RPMI 1640 medium (without serum), dispensed into a 96-well plate and incubated at 37° C. for 3 h in a humidified incubator. After incubation, the medium was replaced (with medium containing 1% foetal bovine serum) and the plate incubated at 37° C., for 1 h, in the presence of test compound or the appropriate vehicle. LPS (10 ng/ml), or an appropriate vehicle control, was then added to the cells and the plate returned to the incubator for 18 h. Cell-free supernatants were removed and assayed for TNFα levels using MSD plates on the Sector Imager 6000 (MesoScale).
A dose response curve to each test compound was performed and the effect of compound in each experiment was expressed as a percentage inhibition of the control TNFα release. Dose response curves were plotted and compound potency (IC50) was determined. Compounds were tested in at least three separate experiments.

The next experiment has as its target T1, p38alpha (Homo sapiens, UniProt Q16539).
T1 construct: purchased Invitrogen PV3304
Put plainly: P38alpha enzyme inhibition assay (Alphascreen kinase activity assay). The class given is biochemical. The conditions noted are these: IC50 classes; 2 hours preincubation at 25° C., 250 μM ATP; read-out: p38α inhibition. The procedure:
P38alpha Enzyme Inhibition Assay
The inhibitory activity of compounds was determined using an Alphascreen® (Perkin Elmer) based kinase activity assay. Kinase reactions consisted of 25 mM HEPES pH 7.5, 10 mM MgCl2, 100 μM Na3VO4, 2 mM DTT, 0.05 mg/ml Tween […] (Invitrogen, PV3304), 1% DMSO and 0.3 μg/ml ATF-2 fusion protein (New England Biolabs, 9224). Compounds were incubated under these conditions for 2 hours, at 25° C., prior to the initiation of the kinase activity by the addition of the 250 μM ATP. Reaction volumes were 20 uL. After 1 hr at 25° C. reactions were stopped by the adding 10 uL of 25 mM HEPES pH 7.5 containing 62.5 mM EDTA, 0.05% Triton X-100, 10% BSA and 0.83 ng/uL anti-phospho-ATF2 antibody (Abcam, ab28812). Detection was performed by measuring luminescence following the addition of Alphascreen Donor beads (Perkin Elmer 6765300) and Protein A Alphascreen Acceptor beads (Perkin Elmer 6760137), both at a final concentration of 20 ug/ml. IC50 values were determined from concentration-response curves.
(In general: In Alpha technology, singlet oxygen from a donor bead excites a nearby acceptor bead.)

The next experiment has as its system BEAS-2B cells. Put plainly: TNFα-stimulated BEAS-2B IL-8 release assay. In kind it is cell-based. To be noted: Homo sapiens, IC50 classes, TNF-α 10 ng/ml, 18 h, read-out: TNFα-stimulated BEAS-2B IL-8 release inhibition. The procedure:
TNFα-Stimulated BEAS-2B IL-8 Release Assay
Human bronchial epithelial cell line BEAS-2B was purchased from Sigma (St. Louis, Mo.). BEAS-2B cells were cultured in Bronchial Epithelial cell Growth Medium (BEGM), prepared by supplementing Bronchial Epithelial Basal Medium with SingleQuotes™ (Lonza, Switzerland), which contains retinoic acid, epidermal growth factor, epinephrine, transferrin, triiodothyronin, insulin, hydrocortisone, antimicrobial agents, and bovine pituitary extract. In addition, BEGM medium was supplemented with 2 mM glutamine, 100 U penicillin and 100 μg/ml streptomycin (Life Technologies), in an atmosphere of 95% air and 5% CO2 at 37° C.
BEAS-2B were seeded in 48-well plates at the density of 3×10^4 cells per well, grown to approximately 80-90% confluence. Cells were pre-incubated with p38 inhibitors for 1 hour and then stimulated with TNF-α (10 ng/ml) for 18 h at 37° C. with 5% CO2. Subsequently, supernatants were collected and used for measuring IL-8 levels using a paired antibody quantitative ELISA kit purchased from Life Technologies (detection limit: […]). All the treatments were performed at least in quadruplicate.
A concentration-response curve to each test compound was performed and the effect of compound in each experiment was expressed as a percentage inhibition of the control IL-8 release. Compound potency (IC50) was calculated by the analysis of the sigmoidal dose-response curve (variable slope) elaborated by Graph Pad PRISM4 program.

T1 sequence (Q16539 whole entry): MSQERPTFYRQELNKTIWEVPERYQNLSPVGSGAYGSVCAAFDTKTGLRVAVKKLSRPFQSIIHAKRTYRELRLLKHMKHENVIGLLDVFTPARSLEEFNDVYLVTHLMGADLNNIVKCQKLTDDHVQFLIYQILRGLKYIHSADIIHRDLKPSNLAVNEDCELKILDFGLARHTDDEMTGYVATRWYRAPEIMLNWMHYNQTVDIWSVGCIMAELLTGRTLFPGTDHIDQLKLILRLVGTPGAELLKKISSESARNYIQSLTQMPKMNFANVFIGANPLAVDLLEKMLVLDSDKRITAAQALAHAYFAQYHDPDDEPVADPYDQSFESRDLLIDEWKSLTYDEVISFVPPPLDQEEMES

For the compound `CN1CCC[C@@]1(C)c1nnc2ccc(O[C@@H]3CC[C@H](NC(=O)Nc4cc(CN(CCO)CCO)cc(C(C)(C)C)c4)c4ccccc43)cn12` [Example 75, 1-(3-{[Bis-(2-hydroxy-ethyl)-amino]-methyl}-5-tert-butyl-phenyl)-3-{(1S,4R)-4-[3-((S)-1,2-dimethyl-pyrrolidin-2-yl)-[1,2,4]triazolo[4,3-a]pyridin-6-yloxy]-1,2,3,4-tetrahydro-naphthalen-1-yl}-urea], the values for the IC50 (in experiment [1]; on p38alpha; in the experiment with BEAS-2B cells) were 1 to 5 nM, less than 1 nM and greater than 1 nM, respectively.

With `COc1c(NC(C)=O)cc(C(C)(C)C)cc1NC(=O)N[C@H]1CC[C@@H](Oc2ccc3nnc([C@@H]4CCCN4C)n3c2)c2ccccc21` [Example 11, N-[5-tert-Butyl-2-methoxy-3-(3-{(1S,4R)-4-[3-((S)-1-methyl-pyrrolidin-2-yl)-[1,2,4]triazolo[4,3-a]pyridin-6-yloxy]-1,2,3,4-tetrahydro-naphthalen-1-yl}-ureido)-phenyl]-acetamide], the IC50 was less than 1 nM in experiment [1], less than 1 nM on p38alpha and greater than 1 nM in the experiment on BEAS-2B cells.

`CNC(=O)c1cc(NC(=O)N[C@H]2CC[C@@H](Oc3ccc4nnc([C@@H]5CCCN5C)n4c3)c3ccccc32)cc(C(C)(C)C)c1` [Example 54, 3-tert-Butyl-N-methyl-5-(3-{(1S,4R)-4-[3-((S)-1-methyl-pyrrolidin-2-yl)-[1,2,4]triazolo[4,3-a]pyridin-6-yloxy]-1,2,3,4-tetrahydro-naphthalen-1-yl}-ureido)-benzamide]: the IC50 in experiment [1] is 1 to 5 nM; at p38alpha, less than 1 nM; in the experiment on BEAS-2B cells it was greater than 1 nM.

Turning to `CNS(=O)(=O)c1cc(NC(=O)N[C@H]2CC[C@@H](Oc3ccc4nnc([C@@H]5CCCN5C)n4c3)c3ccccc32)cc(C(C)(C)C)c1` [Example 38, 3-tert-Butyl-N-methyl-5-(3-{(1S,4R)-4-[3-((S)-1-methyl-pyrrolidin-2-yl)-[1,2,4]triazolo[4,3-a]pyridin-6-yloxy]-1,2,3,4-tetrahydro-naphthalen-1-yl}-ureido)-benzenesulfonamide], the figures for the IC50 (in experiment [1]; at p38alpha; in the experiment on BEAS-2B cells) were 1 to 5 nM, less than 1 nM and 0.3 to 1 nM, respectively.

Consider `CNC(=O)c1cc(C(C)(C)C)cc(NC(=O)N[C@H]2CC[C@@H](Oc3ccc4nnc([C@@H]5CCCN5C)n4c3)c3ccccc32)c1OC` [Example 7, 5-tert-Butyl-2-methoxy-N-methyl-3-(3-{(1S,4R)-4-[3-((S)-1-methyl-pyrrolidin-2-yl)-[1,2,4]triazolo[4,3-a]pyridin-6-yloxy]-1,2,3,4-tetrahydro-naphthalen-1-yl}-ureido)-benzamide hydrochloride salt], for which the results for the IC50 (in experiment [1]; on p38alpha; with BEAS-2B cells) were less than 1 nM, less than 1 nM and 0.3 to 1 nM, respectively.

For `CN1CCC[C@@]1(C)c1nnc2ccc(O[C@@H]3CC[C@H](NC(=O)Nc4cc(CNS(C)(=O)=O)cc(C(C)(C)C)c4)c4ccccc43)cn12` [Example 45, N-[3-tert-Butyl-5-(3-{(1S,4R)-4-[3-((S)-1,2-dimethyl-pyrrolidin-2-yl)-[1,2,4]triazolo[4,3-a]pyridin-6-yloxy]-1,2,3,4-tetrahydro-naphthalen-1-yl}-ureido)-benzyl]-methanesulfonamide], the IC50 was less than 1 nM in experiment [1], less than 1 nM on p38alpha and less than 0.3 nM with BEAS-2B cells.

Turning to `CN1CCC[C@@]1(C)c1nnc2ccc(O[C@@H]3CC[C@H](NC(=O)Nc4cc(C(N)=O)cc(C(C)(C)C)c4)c4ccccc43)cn12` [Example 53, 3-tert-Butyl-5-(3-{(1S,4R)-4-[3-((S)-1,2-dimethyl-pyrmlidin-2-yl)-[1,2,4]triazolo[4,3-a]pyridin-6-yloxy]-1,2,3,4-tetrahydro-naphthalen-1-yl}-ureido)-benzamide], the results for the IC50 (in experiment [1]; on p38alpha; in the experiment on BEAS-2B cells) were less than 1 nM, less than 1 nM and less than 0.3 nM, respectively.

For `Cc1c(NC(=O)N[C@H]2CC[C@@H](Oc3ccc4nnc([C@@H]5CCCN5C)n4c3)c3ccccc32)cc(C(C)(C)C)cc1NS(C)(=O)=O` [Example 57, N-[5-tert-Butyl-2-methyl-3-(3-{(1S,4R)-4-[3-((S)-1-methyl-pyrrolidin-2-yl)-[1,2,4]triazolo[4,3,a]pyridin-6-yloxy]-1,2,3,4-tetrahydro-naphthalen-1-yl}-ureido)-phenyl]-methanesulfonamide], the IC50 was 1 to 5 nM in experiment [1], less than 1 nM at p38alpha and greater than 1 nM with BEAS-2B cells.

`C[C@H]1CCCCN1c1nnc2ccc(O[C@@H]3CC[C@H](NC(=O)Nc4cc(CN(C)C)cc(C(C)(C)C)c4)c4ccccc43)cn12` [Example 66, 1-(3-tert-Butyl-5-dimethylaminomethyl-phenyl)-3-{(1S,4R)-4-[3-((S)-2-methyl-piperidin-1-yl)-[1,2,4]triazolo[4,3-a]pyridin-6-yloxy]-1,2,3,4-tetrahydro-naphthalen-1-yl}-urea]: the IC50 was 1 to 5 nM in experiment [1], less than 1 nM at p38alpha and less than 0.3 nM with BEAS-2B cells.

In the case of `COc1ccc(C(C)(C)C)cc1NC(=O)N[C@H]1CC[C@@H](Oc2ccc3nnc([C@@H]4CCCN4C)n3c2)c2ccccc21` [Example 1, hydrochloride salt], the IC50 was less than 1 nM in experiment [1], less than 1 nM at p38alpha and less than 0.3 nM in the experiment with BEAS-2B cells.

As to `CCN1CCC[C@@]1(C)c1nnc2ccc(O[C@@H]3CC[C@H](NC(=O)Nc4cc(NS(C)(=O)=O)cc(C(C)(C)C)c4)c4ccccc43)cn12` [Example 27, N-[3-tert-Butyl-5-(3-{(1S,4R)-4-[3-((S)-1-ethyl-2-methyl-pyrrolidin-2-yl)-[1,2,4]triazolo[4,3-a]pyridin-6-yloxy]-1,2,3,4-tetrahydro-naphthalen-1-yl}-ureido)-phenyl]-methanesulfonamide], the IC50 was less than 1 nM in experiment [1], less than 1 nM on p38alpha and less than 0.3 nM with BEAS-2B cells.

As to `COCCS(=O)(=O)Nc1cc(C(C)(C)C)cc(NC(=O)N[C@H]2CC[C@@H](Oc3ccc4nnc(C(C)(C)N(C)C)n4c3)c3ccccc32)c1OC` [Example 15, 2-Methoxy-ethanesulfonic acid [5-tert-butyl-3-(3-{(1S,4R)-4-[3(1-dimethylamino-1-methyl-ethyl)-[1,2,4]triazolo[4,3-a]pyridin-6-yloxy]-1,2,3,4-tetrahydro-naphthalen-1-yl}-ureido)-2-methoxy-phenyl]-amide hydrochloride salt], the IC50 in experiment [1] was less than 1 nM; on p38alpha it was 1 to 10 nM; with BEAS-2B cells it was less than 0.3 nM.

Turning to `CN1CCC[C@@]1(C)c1nnc2ccc(O[C@@H]3CC[C@H](NC(=O)Nc4cc(COCCN5CCCCC5)cc(C(C)(C)C)c4)c4ccccc43)cn12` [Example 71, 1-[3-tert-Butyl-5-(2-piperidin-1-yl-ethoxymethyl)-phenyl]-3-{(1S,4R)-4-[3-((S)-1,2-dimethyl-pyrrolidin-2-yl)-[1,2,4]triazolo[4,3-a]pyridin-6-yloxy]-1,2,3,4-tetrahydro-naphthalen-1-yl}-urea], the IC50 in experiment [1] was 1 to 5 nM; at p38alpha, less than 1 nM; in the experiment on BEAS-2B cells, 0.3 to 1 nM.
